Values after ≈ are worked out from the molar mass of the structure shown.
Columns and labels:
[1] = Inhibition of Wnt pathway (unknown origin); parameters: species or system Homo sapiens
[2] = Plasma concentration in mouse at 5 mg/kg, po measured after 24 hr; format: ADME, organism-based
[3] = molecular target: Catenin beta-1/Transcription factor 7 (Homo sapiens, UniProt P35222+P36402); assay: Inhibition of beta catenin/TCF (unknown origin) by immunoprecipitation method; format: protein assay
[4] = Inhibition of TBC (unknown origin); parameters: species or system Homo sapiens
[5] = Half life of compound in PBS buffer; format: physicochemical
HeLa = assay: Antiproliferative activity against human HeLa cell line assessed as cell growth inhibition; format: functional, cell-based
[6] = molecular target: T1, Poly [ADP-ribose] polymerase tankyrase-1 (Homo sapiens, UniProt O95271); assay: Inhibition of TNKS1 (unknown origin)
T1 sequence (O95271 whole entry): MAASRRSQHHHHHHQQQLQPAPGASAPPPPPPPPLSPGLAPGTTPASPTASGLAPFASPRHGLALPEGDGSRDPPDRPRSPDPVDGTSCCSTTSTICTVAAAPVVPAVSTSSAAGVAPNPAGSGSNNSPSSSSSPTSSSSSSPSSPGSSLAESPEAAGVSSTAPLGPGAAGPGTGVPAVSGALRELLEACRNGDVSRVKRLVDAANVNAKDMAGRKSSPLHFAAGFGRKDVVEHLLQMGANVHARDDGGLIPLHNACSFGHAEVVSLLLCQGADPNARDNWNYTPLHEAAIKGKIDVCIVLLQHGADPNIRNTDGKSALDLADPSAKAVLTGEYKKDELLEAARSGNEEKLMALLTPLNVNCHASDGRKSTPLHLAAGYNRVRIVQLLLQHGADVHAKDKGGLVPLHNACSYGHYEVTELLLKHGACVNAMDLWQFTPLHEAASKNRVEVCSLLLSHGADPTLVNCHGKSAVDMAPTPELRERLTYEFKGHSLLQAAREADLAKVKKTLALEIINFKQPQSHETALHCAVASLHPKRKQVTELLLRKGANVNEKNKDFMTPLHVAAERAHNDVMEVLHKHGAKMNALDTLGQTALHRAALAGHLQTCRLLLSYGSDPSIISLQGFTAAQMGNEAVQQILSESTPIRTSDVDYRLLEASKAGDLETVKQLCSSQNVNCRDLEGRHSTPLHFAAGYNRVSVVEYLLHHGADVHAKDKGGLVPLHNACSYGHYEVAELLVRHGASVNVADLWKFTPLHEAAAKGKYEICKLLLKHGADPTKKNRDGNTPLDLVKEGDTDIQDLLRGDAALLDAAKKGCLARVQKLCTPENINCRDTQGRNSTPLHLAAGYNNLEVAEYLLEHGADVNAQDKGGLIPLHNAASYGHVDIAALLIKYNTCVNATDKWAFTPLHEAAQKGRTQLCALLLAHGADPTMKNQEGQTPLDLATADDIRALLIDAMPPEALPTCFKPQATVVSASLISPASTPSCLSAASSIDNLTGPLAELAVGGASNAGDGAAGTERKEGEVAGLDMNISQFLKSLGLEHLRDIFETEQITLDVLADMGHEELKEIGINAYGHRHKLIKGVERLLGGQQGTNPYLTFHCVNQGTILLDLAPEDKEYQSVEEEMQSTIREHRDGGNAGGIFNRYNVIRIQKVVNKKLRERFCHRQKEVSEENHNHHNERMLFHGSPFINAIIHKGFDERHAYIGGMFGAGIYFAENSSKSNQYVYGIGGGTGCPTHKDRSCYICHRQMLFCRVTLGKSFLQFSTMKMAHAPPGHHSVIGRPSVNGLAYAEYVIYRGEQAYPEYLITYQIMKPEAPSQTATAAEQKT

cells = settings: Homo sapiens, COLO 320DM
[7] = molecular target: T1, Poly [ADP-ribose] polymerase tankyrase-1; assay: Inhibition of human TNKS1 (1030 to 1317 residues) measured after 20 hrs
[8] = molecular target: T2, Poly [ADP-ribose] polymerase tankyrase-2 (Homo sapiens, UniProt Q9H2K2); assay: Inhibition of human TNKS2 (873 to 1162 residues) measured after 15 hrs in presence of NAD+ by fluorescence assay
T2 sequence (Q9H2K2 whole entry): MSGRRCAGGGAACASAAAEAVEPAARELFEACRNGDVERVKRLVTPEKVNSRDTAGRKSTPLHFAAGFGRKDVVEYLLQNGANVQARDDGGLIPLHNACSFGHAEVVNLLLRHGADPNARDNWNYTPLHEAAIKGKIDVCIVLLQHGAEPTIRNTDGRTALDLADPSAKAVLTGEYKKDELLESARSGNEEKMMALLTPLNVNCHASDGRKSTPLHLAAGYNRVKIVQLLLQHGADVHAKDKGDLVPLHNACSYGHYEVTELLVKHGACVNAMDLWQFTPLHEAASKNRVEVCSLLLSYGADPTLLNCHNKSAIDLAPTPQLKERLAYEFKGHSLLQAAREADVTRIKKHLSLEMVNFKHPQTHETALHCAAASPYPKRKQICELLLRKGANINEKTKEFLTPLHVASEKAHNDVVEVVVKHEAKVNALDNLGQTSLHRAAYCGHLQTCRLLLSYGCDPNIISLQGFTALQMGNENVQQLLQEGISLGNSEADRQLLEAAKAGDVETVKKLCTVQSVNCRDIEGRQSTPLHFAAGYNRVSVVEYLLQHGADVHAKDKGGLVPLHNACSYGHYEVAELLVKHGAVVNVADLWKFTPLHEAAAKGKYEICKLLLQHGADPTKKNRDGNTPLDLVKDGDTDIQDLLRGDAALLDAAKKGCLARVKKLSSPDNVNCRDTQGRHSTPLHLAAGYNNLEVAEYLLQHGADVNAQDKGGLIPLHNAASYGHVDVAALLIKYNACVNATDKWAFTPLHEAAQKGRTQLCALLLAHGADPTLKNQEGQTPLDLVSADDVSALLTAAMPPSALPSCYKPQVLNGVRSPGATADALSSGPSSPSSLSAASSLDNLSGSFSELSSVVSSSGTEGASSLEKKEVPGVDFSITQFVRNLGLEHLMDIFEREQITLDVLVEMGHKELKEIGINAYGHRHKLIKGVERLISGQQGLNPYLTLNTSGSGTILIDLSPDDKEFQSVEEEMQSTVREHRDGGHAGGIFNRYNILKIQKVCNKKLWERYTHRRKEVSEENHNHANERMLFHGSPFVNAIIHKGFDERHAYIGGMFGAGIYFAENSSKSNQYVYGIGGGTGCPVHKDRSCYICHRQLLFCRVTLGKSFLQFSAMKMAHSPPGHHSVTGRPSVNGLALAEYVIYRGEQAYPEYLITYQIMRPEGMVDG

[9] = Chemical stability of the compound at pH 7.4 measured after 24 hrs; format: physicochemical; settings: buffer, read-out: Stability
[10] = molecular target: T2, Poly [ADP-ribose] polymerase tankyrase-2; assay: Inhibition of TNKS2 (unknown origin)
[11] = Solubility of the compound at pH 7.4; format: physicochemical; settings: buffer
[12] = Oral bioavailability in mouse at 2.5 mg/kg; format: ADME, organism-based; settings: in vivo
[13] = Oral bioavailability in mouse; format: ADME, organism-based; settings: in vivo
[14] = Oral bioavailability in rat at 2 mg/kg; format: ADME, organism-based; settings: in vivo
[15] = Oral bioavailability in dog; format: ADME, organism-based, Canis lupus familiaris; settings: in vivo
[16] = In vivo inhibition of MMTV-WNT1 in mouse model assessed as reduction in tumor growth at 0.3 mg/kg, po administered once daily for 2 weeks; format: functional; settings: 336 h
[17] = In vivo inhibition of MMTV-WNT1 in mouse model assessed as reduction in tumor growth at 1 mg/kg, po administered once daily for 2 weeks; format: functional; settings: 336 h
[18] = In vivo inhibition of MMTV-WNT1 in mouse model assessed as reduction in tumor growth at 3 mg/kg, po administered once daily for 2 weeks; format: functional; settings: 336 h
[19] = molecular target: T2, Poly [ADP-ribose] polymerase tankyrase-2; assay: Binding affinity to TNKS2 (unknown origin) assessed as inhibition constant
[20] = molecular target: T2, Poly [ADP-ribose] polymerase tankyrase-2; assay: Binding affinity to human TNKS2 ARC4 assessed as dissociation constant
MG-63 = assay: Antitumor activity against human MG-63 cells xenografted in osteosarcoma mouse model assessed as tumor growth inhibition at 5 mg/kg relative to control; format: functional; settings: read-out: TGI
[21] = Oral bioavailability in mouse at 10 mg/kg; format: ADME, organism-based; settings: in vivo
HEK293 = assay: Antitumor activity against human HEK293 cells xenografted in […] assessed as tumor growth inhibition at 10 mg/kg relative to control; format: functional; settings: read-out: TGI
[22] = In vivo inhibition of WNT1 in mouse model assessed as reduction in tumor volume by measuring T/C ratio at 1 mg/kg; format: functional
[23] = In vivo inhibition of WNT1 in mouse model assessed as reduction in tumor volume by measuring T/C ratio at 3 mg/kg; format: functional

Catenin beta-1/Transcription factor 7, sequence (P36402 whole entry): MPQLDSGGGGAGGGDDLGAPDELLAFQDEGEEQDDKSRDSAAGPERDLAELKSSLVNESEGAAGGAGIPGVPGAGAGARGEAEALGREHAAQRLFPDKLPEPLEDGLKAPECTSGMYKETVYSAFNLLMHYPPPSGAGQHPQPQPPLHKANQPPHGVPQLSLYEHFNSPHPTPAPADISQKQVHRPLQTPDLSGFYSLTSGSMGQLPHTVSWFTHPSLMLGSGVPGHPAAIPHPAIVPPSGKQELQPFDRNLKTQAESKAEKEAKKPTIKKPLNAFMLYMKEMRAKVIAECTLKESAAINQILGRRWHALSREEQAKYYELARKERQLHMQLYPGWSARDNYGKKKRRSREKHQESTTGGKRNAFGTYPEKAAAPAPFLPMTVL
Catenin beta-1/Transcription factor 7, sequence (P35222 whole entry): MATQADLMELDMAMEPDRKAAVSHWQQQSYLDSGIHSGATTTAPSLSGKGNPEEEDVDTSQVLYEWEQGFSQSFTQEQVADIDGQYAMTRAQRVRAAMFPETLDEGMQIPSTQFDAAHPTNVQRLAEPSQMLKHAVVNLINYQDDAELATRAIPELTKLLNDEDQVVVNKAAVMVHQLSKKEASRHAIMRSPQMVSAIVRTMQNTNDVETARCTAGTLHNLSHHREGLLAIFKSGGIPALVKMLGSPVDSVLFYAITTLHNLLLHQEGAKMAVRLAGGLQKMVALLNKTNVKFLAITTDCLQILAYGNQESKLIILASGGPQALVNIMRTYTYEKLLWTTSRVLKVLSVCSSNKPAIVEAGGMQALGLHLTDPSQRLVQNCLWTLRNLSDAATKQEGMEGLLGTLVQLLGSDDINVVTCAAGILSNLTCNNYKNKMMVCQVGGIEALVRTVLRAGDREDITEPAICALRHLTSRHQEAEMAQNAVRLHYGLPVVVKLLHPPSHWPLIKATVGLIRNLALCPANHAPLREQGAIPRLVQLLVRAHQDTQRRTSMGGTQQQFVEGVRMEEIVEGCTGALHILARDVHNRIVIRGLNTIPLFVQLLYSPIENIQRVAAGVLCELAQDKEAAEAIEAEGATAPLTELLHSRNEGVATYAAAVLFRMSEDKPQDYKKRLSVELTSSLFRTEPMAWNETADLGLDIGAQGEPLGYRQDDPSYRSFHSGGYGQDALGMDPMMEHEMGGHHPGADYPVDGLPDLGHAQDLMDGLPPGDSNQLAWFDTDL

## Cc1ccc2nc(NC(=O)CSc3nc4c(c(=O)n3-c3ccccc3)SCC4)sc2c1
[1]
  IC50: 27 nM

## Cc1cc(-c2ccc(CC(=O)Nc3ccc(-c4cccnc4)cc3)cc2)ccn1
[1]
  IC50: 0.074 nM
[2]
  concentration at 24 h: 1 nM

## O=C1[C@H](Cc2ccc(O)cc2)N2C(=O)CCN(C(=O)NCc3ccccc3)[C@H]2CN1Cc1cccc2ccccc12
[3]
  IC50: 3000 nM

## COc1ccccc1NC(=O)c1ccc(NC(=O)CCc2nc3ccccc3c(=O)[nH]2)cc1
[4]
  IC50: 160 nM
[5]
  half-life: 0.667 h

## O=C(CSc1nc2c(c(=O)n1-c1ccccc1)SCC2)Nc1ccc(-c2ccccc2)cn1
HeLa
  EC50: 0.5 nM

## O=C(CCC1CCCC1)Nc1nnc2n1CCS2
[6]
  IC50: 1900 nM

## Nc1nonc1NC(=O)Cn1c2ccccc2c2nc3nonc3nc21
cells
  IC50: 31000 nM

## O=C(O)CCCn1c2ccccc2c2nc3nonc3nc21
cells
  IC50: 15000 nM

## CN1CCCc2c1cc(-c1ccc(Br)cc1)[nH]c2=O
[7]
  IC50: 423 nM
[8]
  IC50: 6.1 nM

## Cc1cc(-c2ccc(OC(C)C(=O)Nc3ccc(-c4cnccn4)cn3)cc2)ccn1 (stereo not given)
[1]
  IC50: 0.11 nM
[9]
  remaining at 24 h: 71%

## COc1ccc(C2(CNC(=O)c3ccc(NC(=O)c4ccco4)cc3)CCOCC2)cc1
[10]
  IC50: 830 nM

## Cc1cc(-c2ccc(CC(=O)Nc3ccc4c(c3)[nH]c3ccccc34)cc2)ccn1
[1]
  IC50: 2.3 nM

## O=C(CN1CCCC2=C1C(=O)N(C1CC1)C2=O)Nc1ccc(-c2cccnc2)nn1
[11]
  solubility: 60 µg/mL (≈ 148 µM)
[12]
  bioavailability: 81%

## C[C@H](Nc1ccc(-c2ccnn2C)nc1)C(=O)Nc1ccc(-c2cccnc2)cn1
[11]
  solubility: 73 µg/mL (≈ 183 µM)
[12]
  bioavailability: 100%

## CN1C(=O)C2=C(C1=O)N(CC(=O)Nc1ccc(-c3nccs3)cc1)CCC2
[11]
  solubility: 15 µg/mL (≈ 39.2 µM)

## O=C(COc1ccc(-n2ccnc2)cc1)Nc1ccc(-c2ccccc2)cc1
[11]
  solubility: < 1 µg/mL
[12]
  bioavailability: < 1%

## CCCn1c(SCC(=O)Nc2nc3ccc(OC)cc3s2)nnc1-c1ccncc1
[1]
  IC50: 12 nM

## CC(=O)N1CCN(c2ccc(NC(=O)Cc3cnc(-c4ccnc(F)c4)c(C)c3)nc2)CC1
[1]
  IC50: 0.8 nM
[13]
  bioavailability: 72%
[14]
  bioavailability: 72%
[15]
  bioavailability: 96%
[16]
  inhibition in vivo at 0.3 mg/kg: 15%
[17]
  inhibition in vivo at 1 mg/kg: 74%
[18]
  inhibition in vivo at 3 mg/kg: 84%

## NS(=O)(=O)c1ccc(NC(=S)N2CCN(C/C=C/c3ccccc3)CC2)cc1
cells
  IC50: 2000 nM

## CCc1ccc(OCC(=O)Nc2sc(C)c(C)c2C(N)=O)c(F)c1
[19]
  Ki: 27900 nM

## CC(=O)N[C@@H](CCCNC(=N)N)C(=O)N[C@@H](CCC(=O)O)C(=O)N[C@H]1CCCCn2cc(nn2)CCCCCc2cn(nn2)CCCC[C@H](C(=O)N[C@H](CCC(=O)O)C(N)=O)NC(=O)CNC(=O)[C@@H](CC(=O)O)NC(=O)CNC1=O
[20]
  Kd: 2800 nM

## Cc1cc(-c2ccc(CNC(=O)c3ccc4c(c3)[nH]c3ccccc34)cc2F)ccn1
[1]
  IC50: 0.5 nM

## N#Cc1ccc(Oc2ccc(NC(=O)CCSc3nc4ccccc4c(=O)[nH]3)cc2)cc1
[4]
  IC50: 1.9 nM
[5]
  half-life: 2.8 h

## COc1ccc(-n2c(C(=O)NCC(=O)Nc3nc4ccc(OC)cc4s3)nc3ccccc3c2=O)cc1
[1]
  IC50: 58 nM

## CN(C)c1ccc2c(-c3ccc(C(=O)NCCCCCC(=O)N[C@@H](CCCNC(=N)N)C(=O)N[C@@H](CCC(=O)O)C(=O)N[C@H]4CCn5cc(nn5)-c5cc(C(=O)O)cc(c5)C5=CN(CC[C@@H](C(=O)N[C@@H](CCC(=O)O)C(N)=O)NC(=O)CNC(=O)[C@H](CC(=O)O)NC(=O)CNC4=O)NN5)cc3C(=O)[O-])c3ccc(=[N+](C)C)cc-3oc2c1
[20]
  Kd: 440 nM

## O=C(Nc1cccc2cccnc12)c1ccc(N2C(=O)[C@@H]3[C@H](C2=O)[C@@H]2C=C[C@H]3C2)cc1
MG-63
  inhibition in vivo at 5 mg/kg: 71%

## Cn1c(=O)c2c(ncn2CC(=O)Nc2ccc(-c3ccccc3)nn2)n(C)c1=O [ETC-159]
[21]
  bioavailability: 100%
HEK293
  inhibition in vivo at 10 mg/kg: 94%

## Cc1cc(-c2ncc(CC(=O)Nc3ccc(-c4cnccn4)cn3)cc2C)ccn1 [WNT-974]
[1]
  IC50: 1 nM
[22]
  inhibition in vivo at 1 mg/kg: 47%
[23]
  inhibition in vivo at 3 mg/kg: 63%
